Test results published in patent US20240199647A1, “ANTI-VIRAL COMPOUNDS” (Aligos Therapeutics, Inc., priority 2022, published 2024).
Like-named read-outs stand apart in the source and are kept apart here.

How the values were obtained:
[1] = biological target: SARS-Cov-2 3CLpro (Severe acute respiratory syndrome coronavirus 2, UniProt P0DTD1); assay: biochemical; settings: Table A, read-out: SARS-Cov-2 (IC50)
[2] = Cytotoxicity in HeLa cells without addition of OC43 virus (in parallel); settings: human, HeLa cells, without OC43 virus
[3] = system: human beta-coronavirus OC43; assay: OC43 Coronavirus Assay in HeLa cells (antiviral, cytopathic effect, cell-titer-glo); format: cell-based; settings: Betacoronavirus 1, OC43, HeLa, Table B, OC43 coronavirus in HeLa cells, read-out: EC50
[4] = system: SARS-CoV-2 B.1.1.7 lineage; assay: microbe, parasite or virus in culture; format: cell-based; settings: Severe acute respiratory syndrome coronavirus 2, Table C, SARS-CoV-2 B.1.1.7 in A549-dual_ACE2_TMPRSS2 cells, read-out: A549-dual_ACE2_TMPRSS2 (EC50)
[5] = in vitro; settings: human

Row | Compound | IC50 ([1]; class symbols) | CC50 at 6 days [2] | EC50 ([3]; class symbols) | EC50 ([4]; class symbols) | CC50 [5] | EC50 ([4]; cells given as a bound) | EC50 ([3]; cells given as a bound) | IC50 ([1]; cells given as a bound)
1 | C[C@H](NC(=O)C(F)(F)F)C(=O)N(C)[C@@H](CC1CCC1)C(=O)N1C[C@@]2(C[C@H]1C#N)Oc1cccnc1NC2=O [Compound 165] | < 20 nM | > 10000 nM | < 100 nM | < 100 nM | > 1000 nM |  |  | 
2 | CN(C(=O)C(O)C(C)(C)C)[C@@H](CC1CC1)C(=O)N1C[C@@]2(C[C@H]1C#N)Oc1cc(F)cc(F)c1NC2=O (stereo partly drawn) [Compound 138] | < 20 nM | > 10000 nM | 100 to 1000 nM | 100 to 1000 nM | > 1000 nM |  |  | 
3 | CN(C(=O)[C@H](CC1CCC1)NC(=O)C(F)(F)F)[C@@H](CC1CC1)C(=O)N1C[C@@]2(C[C@H]1C#N)Oc1cc(F)cc(F)c1NC2=O [Compound 87] | < 20 nM | > 10000 nM | 100 to 1000 nM | < 100 nM | > 1000 nM |  |  | 
4 | C[C@H](NC(=O)c1ccc(F)cc1)C(=O)N(C)[C@@H](CC1CC1)C(=O)N1C[C@@]2(C[C@H]1C#N)Oc1cccnc1NC2=O [Compound 195] | < 20 nM | > 10000 nM | 100 to 1000 nM | 100 to 1000 nM | > 1000 nM |  |  | 
5 | CN(C(=O)[C@H](CC1CC1)NC(=O)C(F)(F)F)C(CC1CC1)C(=O)N1C[C@@]2(C[C@H]1C#N)Oc1cc(S(C)(=O)=O)ccc1NC2=O (stereo in doubt) [Compound 110, (S)—N—((S)-1-((2R,5'S)-5′-cyano-7-(methylsulfonyl)-3-oxo-3,4-dihydrospiro[benzo[b][1,4]oxazine-2,3′-pyrrolidin]-1′-yl)-3-cyclopropyl-1-oxopropan-2-yl)-3-cyclopropyl-N-methyl-2-(2,2,2-trifluoroacetamido)propanamide] | < 20 nM | > 10000 nM | < 100 nM |  | > 1000 nM | > 1000 nM |  | 
6 | CN(C(=O)[C@H](CC1(C)CC1)NC(=O)C(F)(F)F)[C@@H](CC1(C)CC1)C(=O)N1C[C@@]2(C[C@H]1C#N)Oc1cccnc1NC2=O [Compound 215] | < 20 nM | > 10000 nM | < 100 nM | < 100 nM | > 1000 nM |  |  | 
7 | CN(C(=O)C(O)c1ccc(F)cc1)[C@@H](CC1CC1)C(=O)N1C[C@@]2(C[C@H]1C#N)Oc1cc(F)cc(F)c1NC2=O (stereo partly drawn) [Compound 136] | < 20 nM | > 10000 nM | 100 to 1000 nM | 100 to 1000 nM | > 1000 nM |  |  | 
8 | CN(C(=O)[C@H](COC(C)(C)C)NC(=O)C(F)(F)F)[C@@H](CC1CC1)C(=O)N1C[C@@]2(C[C@H]1C#N)Oc1cccnc1NC2=O [Compound 190] | < 20 nM | > 10000 nM | < 100 nM | 100 to 1000 nM | > 1000 nM |  |  | 
9 | CN(C(=O)[C@H](CC1CC1)NC(=O)C(F)(F)F)[C@@H](CC1CC1)C(=O)N1C[C@@]2(C[C@H]1C#N)Oc1cc(Cl)cc(F)c1NC2=O [Compound 59] | < 20 nM | > 10000 nM | < 100 nM | < 100 nM | > 1000 nM |  |  | 
10 | CN1CCC[C@H]1C(=O)N(C)[C@@H](CC1CC1)C(=O)N1C[C@@]2(C[C@H]1C#N)Oc1cc(F)cc(F)c1NC2=O [Compound 131] | 20 to 200 nM | > 10000 nM | 1000 to 10000 nM |  | > 1000 nM | > 1000 nM |  | 
11 | CN(C(=O)[C@H](CC1CC1)NC(=O)C1(F)CC1)[C@@H](CC1CC1)C(=O)N1C[C@@]2(C[C@H]1C#N)Oc1cc(F)cc(F)c1NC2=O [Compound 76] |  | > 10000 nM | < 100 nM | < 100 nM | > 1000 nM |  |  | 
12 | CC(C)C[C@H](NC(=O)C(F)(F)F)C(=O)N(C)[C@@H](CC(C)C)C(=O)N1C[C@@]2(C[C@H]1C#N)Oc1cc(F)cc(F)c1NC2=O [Compound 63] | < 20 nM | > 10000 nM | 100 to 1000 nM | 100 to 1000 nM | > 1000 nM |  |  | 
13 | CC(C)C[C@@H](C(=O)N1C[C@@]2(C[C@H]1C#N)N=C(c1ccccc1)NC2=O)N(C)C(=O)[C@H](C)NC(=O)C(F)(F)F [Compound 12, (2S)—N-[(2S)-1-[(5R,8S)-8-cyano-4-oxo-2-phenyl-1,3,7-triazaspiro[4.4]non-1-en-7-yl]-4-methyl-1-oxopentan-2-yl]-N-methyl-2-(2,2,2-trifluoroacetamido)propanamide] | 20 to 200 nM | > 10000 nM | 1000 to 10000 nM | 1000 to 10000 nM | > 1000 nM |  |  | 
14 | Cc1cnc2c(c1)NC(=O)[C@]1(C[C@@H](C#N)N(C(=O)[C@H](CC3CC3)N(C)C(=O)[C@H](CC3CC3)NC(=O)C(F)(F)F)C1)O2 [Compound 126, (S)—N—((S)-1-((3R,5'S)-5′-cyano-7-methyl-2-oxo-1,2-dihydrospiro[pyrido[2,3-b][1,4]oxazine-3,3′-pyrrolidin]-1′-yl)-3-cyclopropyl-1-oxopropan-2-yl)-3-cyclopropyl-N-methyl-2-(2,2,2-trifluoroacetamido)propanamide] | < 20 nM | > 10000 nM | < 100 nM | 100 to 1000 nM | > 1000 nM |  |  | 
15 | CN(C(=O)[C@H](CC1CC1)NC(=O)C(F)(F)F)[C@@H](CC1CC1)C(=O)N1C[C@]2(C[C@H]1C#N)C(=O)Nc1ccccc1S2(=O)=O [Compound 82] | 20 to 200 nM | > 10000 nM | 100 to 1000 nM |  | > 1000 nM | > 1000 nM |  | 
16 | C[C@H](NC(=O)C(F)(F)F)C(=O)N(C)[C@@H](COC(C)(C)C)C(=O)N1C[C@@]2(C[C@H]1C#N)Oc1cc(F)cc(F)c1NC2=O [Compound 115, (S)—N—((S)-3-(t-butoxy)-1-((2R,5'S)-5′-cyano-5,7-difluoro-3-oxo-3,4-dihydrospiro[benzo[b][1,4]oxazine-2,3′-pyrrolidin]-1′-yl)-1-oxopropan-2-yl)-N-methyl-2-(2,2,2-trifluoroacetamido)propenamide] | < 20 nM | > 10000 nM | 100 to 1000 nM | 100 to 1000 nM | > 1000 nM |  |  | 
17 | CC(C)C[C@@H](C(=O)N1C[C@]2(C[C@H]1C#N)C(=O)Nc1ccccc1C2(C)O)N(C)C(=O)[C@H](C)NC(=O)C(F)(F)F (stereo partly drawn) [Compound 80] | 200 to 2000 nM | > 10000 nM | < 100 nM |  |  |  |  | 
18 | N#C[C@@H]1C[C@]2(CN1C(=O)[C@H](CC1CC1)NC(=O)[C@H](CC1CC1)NC(=O)C(F)(F)F)Oc1cc(F)cc(F)c1NC2=O [Compound 78] |  | > 10000 nM | 100 to 1000 nM | 100 to 1000 nM | > 1000 nM |  |  | 
19 | Cc1ccc(C(=O)N(C)[C@@H](CC2CC2)C(=O)N2C[C@@]3(C[C@H]2C#N)Oc2cccnc2NC3=O)[nH]c1=O [Compound 232] | 200 to 2000 nM | > 10000 nM |  |  |  |  | > 10000 nM | 
20 | COC(=O)N[C@@H](CC1CC1)C(=O)N(C)[C@@H](CC1CC1)C(=O)N1C[C@@]2(C[C@H]1C#N)Oc1cc(F)cc(F)c1NC2=O [Compound 75] |  | > 10000 nM |  | < 100 nM | > 1000 nM |  | > 10000 nM | 
21 | CN(C(=O)c1ccc(=O)[nH]n1)[C@@H](CC1CC1)C(=O)N1C[C@@]2(C[C@H]1C#N)Oc1cccnc1NC2=O [Compound 231] |  | > 10000 nM |  |  |  |  | > 10000 nM | > 2000 nM
22 | CC1NC(=O)[C@]2(C[C@@H](C#N)N(C(=O)[C@H](CC3CC3)N(C)C(=O)[C@H](CC3CC3)NC(=O)C(F)(F)F)C2)Oc2ccccc21 (single isomer, unassigned) [Compound 223, (S)—N—((S)-1-((2R,5S*,5'S)-5′-cyano-5-methyl-3-oxo-4,5-dihydro-3H-spiro[benzo[f][1,4]oxazepine-2,3′-pyrrolidin]-1′-yl)-3-cyclopropyl-1-oxopropan-2-yl)-3-cyclopropyl-N-methyl-2-(2,2,2-trifluoroacetamido)propanamide] | 20 to 200 nM | > 10000 nM | 100 to 1000 nM |  |  |  |  | 
23 | CN(C(=O)[C@H](CCCCN)NC(=O)C(F)(F)F)[C@@H](CC1CC1)C(=O)N1C[C@@]2(C[C@H]1C#N)Oc1cccnc1NC2=O [Compound 221] | < 20 nM | > 10000 nM |  |  |  |  | > 10000 nM | 
24 | CN(C(=O)[C@H](CC1CC1)NC(=O)C(F)(F)F)[C@@H](CC1CC1)C(=O)N1C[C@@]2(C[C@H]1C#N)Oc1ncccc1NC2=O [Compound 91] | < 20 nM | > 10000 nM | < 100 nM |  |  |  |  | 
25 | COc1cccc2[nH]c(C(=O)N(C)[C@@H](CC3CC3)C(=O)N3C[C@@]4(C[C@H]3C#N)Oc3cc(F)cc(F)c3NC4=O)cc12 [Compound 134] | < 20 nM |  |  |  | > 1000 nM | > 1000 nM | > 10000 nM | 
26 | C[C@H](Nc1ncnc2ccccc12)C(=O)N(C)[C@@H](CC1CC1)C(=O)N1C[C@@]2(C[C@H]1C#N)Oc1cccnc1NC2=O [Compound 230] | < 20 nM | > 10000 nM | 100 to 1000 nM |  |  |  |  | 
27 | CN(C(=O)c1cnn(-c2ccccc2C(F)(F)F)c1)[C@@H](CC1CC1)C(=O)N1C[C@@]2(C[C@H]1C#N)Oc1cc(F)cc(F)c1NC2=O [Compound 79] |  | > 10000 nM | < 100 nM | 100 to 1000 nM | > 1000 nM |  |  | 
28 | CN(C(=O)[C@H](CC1CC1)NC(=O)c1ccc(F)cc1)[C@@H](CC1CC1)C(=O)N1C[C@@]2(C[C@H]1C#N)Oc1cc(F)cc(F)c1NC2=O [Compound 77] |  | > 10000 nM | < 100 nM | < 100 nM | > 1000 nM |  |  | 
